In ChEMBL document CHEMBL1136154, “Anti-atherogenic effects of 3,4-Dihydroxy hydrocinnamides” (Bioorg Med Chem Lett, 2003):

What was measured:
Format in all cases: functional, organism-based
Oryctolagus cuniculus [1] = species on record: Oryctolagus cuniculus; assay: (§1) Total cholesterol-fed rabbit
Oryctolagus cuniculus [2] = species on record: Oryctolagus cuniculus; assay: Triglyceride after 8 weeks of cholesterol-fed rabbit
Oryctolagus cuniculus [3] = species on record: Oryctolagus cuniculus; assay: as §1; remark: listed apart in the source
Oryctolagus cuniculus [4] = species on record: Oryctolagus cuniculus; assay: (§2) HDL-cholesterol-fed rabbit
Oryctolagus cuniculus [5] = species on record: Oryctolagus cuniculus; assay: as §2; remark: listed apart in the source
Oryctolagus cuniculus [6] = species on record: Oryctolagus cuniculus; assay: Triglyceride after 0 week of cholesterol-fed rabbit

| SMILES | Plasma lipids (Oryctolagus cuniculus [1]) [mg/dL] | Plasma lipids (Oryctolagus cuniculus [2]) [mg/dL] | Plasma lipids (Oryctolagus cuniculus [3]) [mg/dL] | Plasma lipids (Oryctolagus cuniculus [4]) [mg/dL] | Plasma lipids (Oryctolagus cuniculus [5]) [mg/dL] | Plasma lipids (Oryctolagus cuniculus [6]) [mg/dL] |
| --- | --- | --- | --- | --- | --- | --- |
| COC(=O)C(C)NC(=O)CCc1ccc(O)c(O)c1 (configuration not stated) | 53 | 116 | 1080 | 37 | 81 | 53 |
| COC(=O)C(Cc1c[nH]c2ccccc12)NC(=O)CCc1ccc(O)c(O)c1 (configuration not stated) | 50 | 104 | 1070 | 32 | 98 | 43 |
